Key:
Assay type in all cases: in vivo
[1] = tested on: Glycine max; test: Herbicidal activity, preemergence test (Example 66); parameters: key: A rating of 0 indicates growth as untreated control; a rating of 9 indicates death; settings: pre; 1000 g/ha; assessed visually twenty days after spraying
Experimental: (§1) To evaluate their herbicidal activity, compounds according to the invention are tested using a representative range of plants: ZEAMX Zea mays ORYSA Oryza sativa GLXMA Glycine max BEAVA Beta vulgaris LIUUT Linum usitatissimum AVEFA Avena fatua ECHCG Echinochloa crus-galli SINAL Sinapsis alba
(§2) The tests fall into two categories, preemergence and postemergence. The preemergence tests involve spraying a liquid formulation of the compound onto the soil in which the seeds of the plant species mentioned above have recently been sown. The postemergence tests involve spraying a liquid formulation of the compound onto seedling plants of the above species.
(§3) The soil used in the tests is a prepared horticultural loam.
(§4) The formulations used in the tests are prepared from solutions of the test compounds in acetone containing 0.4% by weight of an alkylphenol/ethylene oxide condensate available under the trademark TRITON X-155. These acetone solutions are diluted with water and the resulting formulations applied at dosage levels corresponding to 1000 g of active material per hectare in a volume equivalent to 900 litres per hectare.
(§5) In the preemergence tests, untreated sown soil, and in the postemergence tests, untreated soil bearing seedling plants, are used as controls.
(§6) The herbicidal effects of the test compounds are assessed visually twenty days after spraying the foliage and the soil and are recorded on a 0-9 scale. A rating of 0 indicates growth as untreated control, a rating of 9 indicates death. An increase of 1 unit on the linear scale approximates to an 11% increase in the level of effect.

[2] = tested on: Avena fatua; test: as above; parameters: key: A rating of 0 indicates growth as untreated control; a rating of 9 indicates death; settings: pre; 1000 g/ha; assessed visually twenty days after spraying
Experimental: as §1, §2, §3, §4, §5, §6

[3] = tested on: Beta vulgaris; test: as above; parameters: key: A rating of 0 indicates growth as untreated control; a rating of 9 indicates death; settings: pre; 1000 g/ha; assessed visually twenty days after spraying
Experimental: as §1, §2, §3, §4, §5, §6

[4] = tested on: Linum usitatissimum; test: as above; parameters: key: A rating of 0 indicates growth as untreated control; a rating of 9 indicates death; settings: pre; 1000 g/ha; assessed visually twenty days after spraying
Experimental: as §1, §2, §3, §4, §5, §6

[5] = tested on: Sinapsis alba; test: as above; parameters: key: A rating of 0 indicates growth as untreated control; a rating of 9 indicates death; settings: pre; 1000 g/ha; assessed visually twenty days after spraying
Experimental: as §1, §2, §3, §4, §5, §6

[6] = tested on: Echinochloa crus-galli; test: as above; parameters: key: A rating of 0 indicates growth as untreated control; a rating of 9 indicates death; settings: pre; 1000 g/ha; assessed visually twenty days after spraying
Experimental: as §1, §2, §3, §4, §5, §6

[7] = tested on: Zea mays; test: as above; parameters: key: A rating of 0 indicates growth as untreated control; a rating of 9 indicates death; settings: pre; 1000 g/ha; assessed visually twenty days after spraying
Experimental: as §1, §2, §3, §4, §5, §6

[8] = tested on: Oryza sativa; test: as above; parameters: key: A rating of 0 indicates growth as untreated control; a rating of 9 indicates death; settings: pre; 1000 g/ha; assessed visually twenty days after spraying
Experimental: as §1, §2, §3, §4, §5, §6

[9] = tested on: Glycine max; test: Herbicidal activity, postemergence test (Example 66); settings: post; 1000 g/ha; assessed visually twenty days after spraying
Experimental: as §1, §2, §3, §4, §5, §6

[10] = tested on: Avena fatua; test: as above; parameters: key: A rating of 0 indicates growth as untreated control; a rating of 9 indicates death; settings: post; 1000 g/ha; assessed visually twenty days after spraying
Experimental: as §1, §2, §3, §4, §5, §6

[11] = tested on: Beta vulgaris; test: as above; parameters: key: A rating of 0 indicates growth as untreated control; a rating of 9 indicates death; settings: post; 1000 g/ha; assessed visually twenty days after spraying
Experimental: as §1, §2, §3, §4, §5, §6

[12] = tested on: Linum usitatissimum; test: as above; parameters: key: A rating of 0 indicates growth as untreated control; a rating of 9 indicates death; settings: post; 1000 g/ha; assessed visually twenty days after spraying
Experimental: as §1, §2, §3, §4, §5, §6

[13] = tested on: Sinapsis alba; test: as above; parameters: key: A rating of 0 indicates growth as untreated control; a rating of 9 indicates death; settings: post; 1000 g/ha; assessed visually twenty days after spraying
Experimental: as §1, §2, §3, §4, §5, §6

[14] = tested on: Echinochloa crus-galli; test: as above; parameters: key: A rating of 0 indicates growth as untreated control; a rating of 9 indicates death; settings: post; 1000 g/ha; assessed visually twenty days after spraying
Experimental: as §1, §2, §3, §4, §5, §6

[15] = tested on: Zea mays; test: as above; parameters: key: A rating of 0 indicates growth as untreated control; a rating of 9 indicates death; settings: post; 1000 g/ha; assessed visually twenty days after spraying
Experimental: as §1, §2, §3, §4, §5, §6

[16] = tested on: Oryza sativa; test: as above; parameters: key: A rating of 0 indicates growth as untreated control; a rating of 9 indicates death; settings: post; 1000 g/ha; assessed visually twenty days after spraying
Experimental: as §1, §2, §3, §4, §5, §6

Row | SMILES | herbicidal effects on a 0-9 scale, GLXMA [1] | herbicidal effects on a 0-9 scale, AVEFA [2] | herbicidal effects on a 0-9 scale, BEAVA [3] | herbicidal effects on a 0-9 scale, LIUUT [4] | herbicidal effects on a 0-9 scale, SINAL [5] | herbicidal effects on a 0-9 scale, ECHCG [6] | herbicidal effects on a 0-9 scale, ZEAMX [7] | herbicidal effects on a 0-9 scale, ORYSA [8] | herbicidal effects on a 0-9 scale, GLXMA [9] | herbicidal effects on a 0-9 scale, AVEFA [10] | herbicidal effects on a 0-9 scale, BEAVA [11] | herbicidal effects on a 0-9 scale, LIUUT [12] | herbicidal effects on a 0-9 scale, SINAL [13] | herbicidal effects on a 0-9 scale, ECHCG [14] | herbicidal effects on a 0-9 scale, ZEAMX [15] | herbicidal effects on a 0-9 scale, ORYSA [16]
1 | C[C@H](NC(=O)c1nc(C(C)(C)C)ns1)c1ccccc1 [Example 8, (S)-3-tert-Butyl-[1,2,4]thiadiazole-5-carboxylic acid, 1-(phenylethyl)amide] | 0 | 0 | 8 | 0 | 8 | 0 | 0 | 0 | 6 | 6 | 9 | 9 | 9 | 8 | 0 | 0
2 | CC(C)c1nsc(C(=O)NCc2cccs2)n1 [Example 9] | 0 | 0 | 0 | 0 | 4 | 2 | 0 | 0 | 2 | 0 | 7 | 2 | 7 | 5 | 2 | 0
3 | CC(C)c1nsc(C(=O)N[C@@H](C)c2ccccc2)n1 [Example 10, (S)-3-Isopropyl-[1,2,4]thiadiazole-5-carboxylic acid, 1-(phenylethyl)amide] | 0 | 0 | 7 | 4 | 7 | 5 | 0 | 0 | 5 | 5 | 8 | 8 | 8 | 8 | 2 | 0
4 | CC(C)Cc1nsc(C(=O)NCc2cccs2)n1 [Example 11] | 0 | 0 | 0 | 0 | 0 | 0 | 0 | 0 | 2 | 0 | 4 | 2 | 7 | 2 | 0 | 0
5 | CC(C)Cc1nsc(C(=O)N[C@@H](C)c2ccccc2)n1 [Example 13, (S)-3-Isobutyl-[1,2,4]thiadiazole-5-carboxylic acid, 1-(phenylethyl)amide] | 0 | 0 | 5 | 0 | 4 | 2 | 0 | 0 | 5 | 5 | 9 | 7 | 8 | 8 | 2 | 0

Source: patent publication EP0726261A1, “Herbidical 1,2,4 thiadiazoles” (American Cyanamid Company, priority 1995, dated 1996)
